{"source": "paper PMC6768106", "about": "“The crystal structure of AcrR from Mycobacterium tuberculosis reveals a one‐component transcriptional regulation mechanism” (FEBS Open Bio, 2019)", "target": "AcrR (Mycobacterium tuberculosis, UniProt O07229)", "sequence (O07229 entry or part of it)": "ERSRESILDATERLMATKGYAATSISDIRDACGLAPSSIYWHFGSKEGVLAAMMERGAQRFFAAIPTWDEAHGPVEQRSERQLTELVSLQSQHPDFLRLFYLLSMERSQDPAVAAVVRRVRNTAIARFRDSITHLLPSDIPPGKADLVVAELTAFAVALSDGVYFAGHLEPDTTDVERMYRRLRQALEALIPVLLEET"}
{"molecule": "CCCCCCCCCCCCCCCC(=O)O", "note": "[palmitate]", "values": [{"measurement": "STD-NMR; also EMSA (promoter DNA release) and CD titration", "value": "which reveals the binding between AcrR and palmitate"}]}
